# From patent US20150329467A1, “FLUORINE ATOM-CONTAINING PHENOL COMPOUND” (FUJIFILM CORPORATION, priority 2012, published 2015)
# “Also recorded” adds a separate entry of the source.
# Experiment: Solubility check: coated film of Cytop CTL-809M fluororesin solution observed by optical microscope for bleed-out or undissolved compound
# Assay type: physicochemical
# Conditions: compound at 0.3 wt % with respect to Cytop CTL-809M in perfluorotributylamine/1,1,1,3,3,3-hexafluoropropan-2-ol/Cytop CTL-809M=91/5/4 (parts by weight); film 1.5 μm on glass, dried
# Description: To a mixed solution of perfluorotributylamine/1,1,1,3,3,3-hexafluoropropan-2-ol/Cytop CTL-809M (manufactured by Asahi Glass Co., Ltd.)=91/5/4 (parts by weight), was added the compound represented by formula (1) according to the invention (any of Compounds 1-1 to 1-8) or Comparative Compound C-1 or C-2 as shown below in an amount of 0.3 wt % with respect to the Cytop CTL-809M. Thereafter, the mixed solution was applied onto a glass substrate to a film thickness of 1.5 μm and dried.
row,SMILES,Solubility
1,CC(C)(C)c1cc(CCC(=O)OCC(F)(F)C(F)(F)C(F)(F)C(F)(F)C(F)(F)C(F)(F)C(F)(F)C(F)(F)C(F)(F)F)cc(C(C)(C)C)c1O [Compound 1-1],Compatible
2,CC(C)(C)c1cc(CCC(=O)OCC(O)CC(F)(F)C(F)(F)C(F)(F)C(F)(F)C(F)(F)C(F)(F)C(F)(F)C(F)(F)F)cc(C(C)(C)C)c1O (stereo not shown) [Compound 1-2],Compatible
3,CC(C)(C)c1cc(CCC(=O)OCCC(F)(F)C(F)(F)C(F)(F)C(F)(F)C(F)(F)C(F)(F)F)cc(C(C)(C)C)c1O [Compound 1-5],Compatible
4,CC(C)(C)c1cc(CCC(=O)OC(CO)CC(F)(F)C(F)(F)C(F)(F)C(F)(F)C(F)(F)C(F)(F)F)cc(C(C)(C)C)c1O (stereo not shown) [Compound 1-7],Compatible
5,Cc1cc(CCC(=O)OCC(F)(F)C(F)(F)C(F)(F)C(F)(F)C(F)(F)C(F)(F)C(F)(F)C(F)(F)C(F)(F)F)cc(C)c1O [Compound 1-6],Compatible
6,"CCCCCCCCCCOC(=O)CCc1cc(C(C)(C)C)c(O)c(C(C)(C)C)c1 [Compound C-1, reference compound]",remained partially undissolved; also recorded: Remain partially
7,Cc1cc(CCC(=O)OCC(F)(F)C(F)(F)C(F)(F)C(F)(F)C(F)(F)C(F)(F)C(F)(F)C(F)(F)C(F)(F)F)cc(C(C)(C)C)c1O [Compound 1-3],Compatible
8,Cc1cc(CCC(=O)OCC(F)(F)C(F)(F)C(F)(F)C(F)(F)C(F)(F)C(F)(F)C(F)(F)C(F)(F)C(F)(F)C(F)(F)F)cc(C)c1O [Compound 1-8],Compatible
9,"CC(C)(C)c1cc(CCC(=O)OCC(O)CC(F)(F)C(F)(F)C(F)(F)F)cc(C(C)(C)C)c1O (stereo not shown) [Compound C-2, reference compound]","bled out on the resin surface; also recorded: Bleed out (a compound which bleeds out is denoted by “Bleed out,”)"
10,CC(C)(C)c1cc(CCC(=O)OCC(F)(F)C(F)(F)C(F)(F)C(F)(F)C(F)(F)C(F)(F)C(F)(F)C(F)(F)F)cc(C(C)(C)C)c1O [Compound 1-4],Compatible
